Assay results: patent US7851474B2, “Dipiperazinyl ketones and related analogues” (Neurogen Corporation, priority 2005, dated 2010)

Biological target: T1, chimeric human H3 receptor (Homo sapiens, UniProt Q9Y5N1, E19D)
T1 construct: made in house; host or cells: Sf9 insect cells (baculovirus infection); P2 membrane preparation
Assay: Chimeric human H3 receptor GTP binding assay (agonist-stimulated GTP-gamma35S binding, Example 7)
Format: biochemical
Conditions: not given
Source text: This Example illustrates a representative assay for evaluating agonist-stimulated GTP-gamma^35S binding (“GTP binding”) activity. […] This agonist-stimulated GTP binding activity can also be used to detect partial agonism mediated by antagonist compounds. A compound analyzed in this assay is referred to herein as a “test compound.”
Four independent baculoviral stocks (one directing the expression of the chimeric human H3 receptor and three directing the expression of each of the three subunits of a heterotrimeric G-protein) are used to infect a culture of Sf9 cells as described above. P2 membranes are prepared as described above, and agonist-stimulated GTP binding on the P2 membranes is assessed using histamine (Sigma Chemical Co., St. Louis, Mo.) as agonist in order to ascertain that the receptor/G-protein-alpha-beta-gamma combination(s) yield a functional response as measured by GTP binding. P2 membranes are resuspended by Dounce homogenization (tight pestle) in GTP binding assay buffer (50 mM Tris pH 7.4, 120 mM NaCl, 5 mM MgCl2, 2 mM EGTA, 1 mg/ml BSA, 0.2 mg/ml bacitracin, 0.02 mg/ml aprotinin, 0.01 mg/ml saponin, 10 μM GDP) and added to assay tubes at a concentration of 35 μg protein/reaction tube. […] In competition experiments, non-radiolabeled test compounds are added to separate reactions at concentrations ranging from 10^−10 M to 10^−6 M along with 1 μM histamine to yield a final volume of 0.20 ml.
Neutral antagonists are antagonists that are substantially free of inherent agonist activity, and include those test compounds that reduce the histamine-stimulated GTP binding activity towards, but not below, baseline levels. In contrast, in the absence of added histamine, inverse agonists reduce the GTP binding activity of the receptor-containing membranes below baseline.
After a 60-min incubation at room temperature, reactions are terminated by vacuum filtration over WHATMAN GF/C filters (pre-soaked in wash buffer, 0.1% BSA) followed by washing with ice-cold wash buffer (50 mM Tris pH 7.4, 120 mM NaCl). The amount of receptor-bound (and thereby membrane-bound) GTP-gamma^35S is determined by measuring the filter-bound radioactivity, preferably by liquid scintillation spectrometry of the washed filters. […] Data is expressed as percent above basal (baseline). The results of GTP binding experiments are analyzed using SIGMAPLOT software (SPSS Inc., Chicago, Ill.).
IC50 values are calculated by non-linear regression analysis of dose-response curves using Kaleidograph (Synergy Software, Reading, Pa.).

T1 sequence (Q9Y5N1 with tags, fused parts or gaps E19D): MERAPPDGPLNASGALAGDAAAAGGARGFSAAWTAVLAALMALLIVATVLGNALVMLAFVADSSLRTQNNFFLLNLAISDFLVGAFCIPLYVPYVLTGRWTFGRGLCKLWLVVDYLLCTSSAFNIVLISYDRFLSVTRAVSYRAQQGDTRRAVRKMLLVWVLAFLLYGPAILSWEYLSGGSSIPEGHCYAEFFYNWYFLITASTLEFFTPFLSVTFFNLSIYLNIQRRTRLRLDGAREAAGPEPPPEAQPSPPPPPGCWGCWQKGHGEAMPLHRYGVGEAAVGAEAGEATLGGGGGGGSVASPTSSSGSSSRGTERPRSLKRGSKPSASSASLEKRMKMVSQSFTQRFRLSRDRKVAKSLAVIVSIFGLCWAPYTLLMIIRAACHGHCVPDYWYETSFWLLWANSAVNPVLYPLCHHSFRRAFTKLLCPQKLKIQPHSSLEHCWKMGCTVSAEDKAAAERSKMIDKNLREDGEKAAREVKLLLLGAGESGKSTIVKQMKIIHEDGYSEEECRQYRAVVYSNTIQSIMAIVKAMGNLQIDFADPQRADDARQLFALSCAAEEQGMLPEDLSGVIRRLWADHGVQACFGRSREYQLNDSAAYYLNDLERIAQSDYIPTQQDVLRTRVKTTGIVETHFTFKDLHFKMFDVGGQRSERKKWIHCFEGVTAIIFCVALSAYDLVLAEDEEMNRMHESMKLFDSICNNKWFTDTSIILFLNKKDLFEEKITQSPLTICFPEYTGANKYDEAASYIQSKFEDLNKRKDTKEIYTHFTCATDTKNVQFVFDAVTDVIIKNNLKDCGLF

| SMILES | Ki |
| --- | --- |
| CCN1CCN(C(=O)CN2CCN(c3ccc(Cl)cc3)CC2)CC1 [Compound 359, 1-(4-chlorophenyl)-4-[2-(4-ethylpiperazin-1-yl)-2-oxoethyl]piperazine] | < 1000 nM |

Same assay, conditions: assay of Example 7; symbol * in column headed Ki of Table II; read-out: Ki

| SMILES | Ki |
| --- | --- |
| O=C(CN1CCN(c2ccc(-c3ccc(Cl)c(F)c3)cc2)CC1)N1CCN(C2CCC2)CC1 [Compound 343, 1-(4′-chloro-3′-fluorobiphenyl-4-yl)-4-[2-(4-cyclobutylpiperazin-1-yl)-2-oxoethyl]piperazine] | < 1000 nM |
| COc1cc(N2CCN(CC(=O)N3CCN(C4CCC4)CC3)CC2)ccc1Cl [Compound 344, 1-(4-chloro-3-methoxyphenyl)-4-[2-(4-cyclobutylpiperazin-1-yl)-2-oxoethyl]piperazine] | < 1000 nM |
| COc1cc(N2CCN(CC(=O)N3CCN(C4CCCCC4)CC3)CC2)ccc1Cl [Compound 345, 1-(4-chloro-3-methoxyphenyl)-4-[2-(4-cyclohexylpiperazin-1-yl)-2-oxoethyl]piperazine] | < 1000 nM |
| COc1cc(N2CCN(CC(=O)N3CCN(C4CCCC4)CC3)CC2)ccc1Cl [Compound 346, 1-(4-chloro-3-methoxyphenyl)-4-[2-(4-cyclopentylpiperazin-1-yl)-2-oxoethyl]piperazine] | < 1000 nM |
| COc1cc(N2CCN(CC(=O)N3CCN(C(C)C)CC3)CC2)ccc1Cl [Compound 347, 1-(4-chloro-3-methoxyphenyl)-4-[2-(4-isopropylpiperazin-1-yl)-2-oxoethyl]piperazine] | < 1000 nM |
| Cc1cc(N2CCN(CC(=O)N3CCN(C4CCC4)CC3)CC2)ccc1Cl [Compound 349, 1-(4-chloro-3-methylphenyl)-4-[2-(4-cyclobutylpiperazin-1-yl)-2-oxoethyl]piperazine] | < 1000 nM |
| Cc1cc(N2CCN(CC(=O)N3CCN(C4CCCCC4)CC3)CC2)ccc1Cl [Compound 350, 1-(4-chloro-3-methylphenyl)-4-[2-(4-cyclohexylpiperazin-1-yl)-2-oxoethyl]piperazine] | < 1000 nM |
| Cc1cc(N2CCN(CC(=O)N3CCN(C4CCCC4)CC3)CC2)ccc1Cl [Compound 351, 1-(4-chloro-3-methylphenyl)-4-[2-(4-cyclopentylpiperazin-1-yl)-2-oxoethyl]piperazine] | < 1000 nM |
| CCN1CCN(C(=O)CN2CCN(c3ccc(Cl)c(C)c3)CC2)CC1 [Compound 352, 1-(4-chloro-3-methylphenyl)-4-[2-(4-ethylpiperazin-1-yl)-2-oxoethyl]piperazine] | < 1000 nM |
| Cc1cc(N2CCN(CC(=O)N3CCN(C(C)C)CC3)CC2)ccc1Cl [Compound 353, 1-(4-chloro-3-methylphenyl)-4-[2-(4-isopropylpiperazin-1-yl)-2-oxoethyl]piperazine] | < 1000 nM |
| O=C(CN1CCN(c2ccc(-c3ccc(Cl)cc3)cc2)CC1)N1CCN(C2CCC2)CC1 [Compound 355, 1-(4′-chlorobiphenyl-4-yl)-4-[2-(4-cyclobutylpiperazin-1-yl)-2-oxoethyl]piperazine] | < 1000 nM |
| O=C(CN1CCN(c2ccc(Cl)cc2)CC1)N1CCN(C2CCC2)CC1 [Compound 356] | < 1000 nM |
| O=C(CN1CCN(c2ccc(Cl)cc2)CC1)N1CCN(C2CCCCC2)CC1 [Compound 357, 1-(4-chlorophenyl)-4-[2-(4-cyclohexylpiperazin-1-yl)-2-oxoethyl]piperazine] | < 1000 nM |
| O=C(CN1CCN(c2ccc(Cl)cc2)CC1)N1CCN(C2CCCC2)CC1 [Compound 358, 1-(4-chlorophenyl)-4-[2-(4-cyclopentylpiperazin-1-yl)-2-oxoethyl]piperazine] | < 1000 nM |
| CC(C)N1CCN(C(=O)CN2CCN(c3ccc(Cl)cc3)CC2)CC1 [Compound 360, 1-(4-chlorophenyl)-4-[2-(4-isopropylpiperazin-1-yl)-2-oxoethyl]piperazine] | < 1000 nM |
| CC(C)N1CCN(C(=O)CN2CCN(c3ccc(F)cc3)CC2)CC1 [Compound 361, 1-(4-fluorophenyl)-4-[2-(4-isopropylpiperazin-1-yl)-2-oxoethyl]piperazine] | < 1000 nM |
| CC(=O)c1cnc(N2CCN(CC(=O)N3CCN(C4CCC4)CC3)CC2)cn1 [Compound 362, 1-(5-{4-[2-(4-cyclobutylpiperazin-1-yl)-2-oxoethyl]piperazin-1-yl}pyrazin-2-yl)ethanone] | < 1000 nM |
| CC(=O)c1ccc(N2C(=O)C3(CCN(CC(=O)N4CCN(C5CCC5)CC4)CC3)c3ccccc32)nc1 [Compound 363, 1-(5-acetylpyridin-2-yl)-1′-[2-(4-cyclobutylpiperazin-1-yl)-2-oxoethyl]spiro[indole-3,4′-piperidin]-2(1H)-one] | < 1000 nM |
| COc1ccc(Cl)cc1-c1ccc(N2CCN(CC(=O)N3CCN(C4CCC4)CC3)CC2)cc1 [Compound 365, 1-(5′-chloro-2′-methoxybiphenyl-4-yl)-4-[2-(4-cyclobutylpiperazin-1-yl)-2-oxoethyl]piperazine] | < 1000 nM |
| COc1ccc(Cl)cc1N1CCN(CC(=O)N2CCN(C3CCC3)CC2)CC1 [Compound 366, 1-(5-chloro-2-methoxyphenyl)-4-[2-(4-cyclobutylpiperazin-1-yl)-2-oxoethyl]piperazine] | < 1000 nM |
| CC(=O)c1ccc(N2CCN(CC(=O)N3CCN(C4CCC4)CC3)CC2)nc1 [Compound 371, 1-(6-{4-[2-(4-cyclobutylpiperazin-1-yl)-2-oxoethyl]piperazin-1-yl}pyridin-3-yl)ethanone] | < 1000 nM |
| CC(=O)c1ccc(N2CCN(CC(=O)N3CCN(C4CCC4)CC3)CC2)nn1 [Compound 372, 1-(6-{4-[2-(4-cyclobutylpiperazin-1-yl)-2-oxoethyl]piperazin-1-yl}pyridazin-3-yl)ethanone] | < 1000 nM |
| CC(=O)c1ccc(N2CCN(CC(=O)N3CCN(C4CCCC4)CC3)CC2)nc1 [Compound 373, 1-(6-{4-[2-(4-cyclopentylpiperazin-1-yl)-2-oxoethyl]piperazin-1-yl}pyridin-3-yl)ethanone] | < 1000 nM |
| COc1cc(Br)c(CC(=O)N2CCN(CC(=O)N3CCN(C4CCC4)CC3)CC2)cc1OC [Compound 378, 1-[(2-bromo-4,5-dimethoxyphenyl)acetyl]-4-[2-(4-cyclobutylpiperazin-1-yl)-2-oxoethyl]piperazine] | < 1000 nM |
| O=C(Cc1cc(Cl)ccc1Br)N1CCN(CC(=O)N2CCN(C3CCC3)CC2)CC1 [Compound 379, 1-[(2-bromo-5-chlorophenyl)acetyl]-4-[2-(4-cyclobutylpiperazin-1-yl)-2-oxoethyl]piperazine] | < 1000 nM |
| O=C(Cc1ccccc1Br)N1CCN(CC(=O)N2CCN(C3CCC3)CC2)CC1 [Compound 380, 1-[(2-bromophenyl)acetyl]-4-[2-(4-cyclobutylpiperazin-1-yl)-2-oxoethyl]piperazine] | < 1000 nM |
| O=C(Cc1c(F)cccc1Cl)N1CCN(CC(=O)N2CCN(C3CCC3)CC2)CC1 [Compound 382, 1-[(2-chloro-6-fluorophenyl)acetyl]-4-[2-(4-cyclobutylpiperazin-1-yl)-2-oxoethyl]piperazine] | < 1000 nM |
| COc1ccc(Br)cc1CC(=O)N1CCN(CC(=O)N2CCN(C3CCC3)CC2)CC1 [Compound 409, 1-[(5-bromo-2-methoxyphenyl)acetyl]-4-[2-(4-cyclobutylpiperazin-1-yl)-2-oxoethyl]piperazine] | < 1000 nM |
| O=C(CN1CCN(c2ccc(C(=O)N3CCCCCC3)cn2)CC1)N1CCN(C2CCC2)CC1 [Compound 415, 1-[(6-{4-[2-(4-cyclobutylpiperazin-1-yl)-2-oxoethyl]piperazin-1-yl}pyridin-3-yl)carbonyl]azepane] | < 1000 nM |
